According to the supplement of paper PMC13380429:

What was measured:
Vero E6 [1] = experiment: cell viability relative to DMSO; higher = less toxic; conditions: 72 h
HepG2 [2] = experiment: as above; conditions: 72 h
Caco-2 [3] = experiment: as above; conditions: 72 h
Calu-3 [4] = experiment: as above; conditions: 72 h
U2OS [5] = experiment: as above; conditions: 72 h
[6] = test system: A549-ACE2 infected with SARS-CoV-2; experiment: SARS-CoV-2 infection rate relative to DMSO; higher = more infection; conditions: 24 h
[7] = test system: A549-ACE2 infected with SARS-CoV-2; experiment: morphology score (similarity to uninfected cells); higher = more like uninfected cells; conditions: 24 h
A549-ACE2 [8] = experiment: phospholipidosis EC50; higher = less potent phospholipidosis inducer
Vero E6 [9] = experiment: drug sensitivity score (DSS) for viability; higher = more toxic; extreme values may be limits of the assay; conditions: 72 h
HepG2 [10] = experiment: as above; conditions: 72 h
Caco-2 [11] = experiment: as above; conditions: 72 h
Calu-3 [12] = experiment: as above; conditions: 72 h
U2OS [13] = experiment: as above; conditions: 72 h
Vero E6 [14] = experiment: relative viability EC50 (midpoint between 100% and the lowest measured viability); higher = less toxic; conditions: 72 h
Caco-2 [15] = experiment: as above; conditions: 72 h
Calu-3 [16] = experiment: as above; conditions: 72 h
A549-ACE2 [17] = experiment: drug-induced phospholipidosis relative to tamoxifen; higher = more phospholipidosis
[18] = test system: A549-ACE2 infected with SARS-CoV-2; experiment: cell count relative to DMSO; higher = less toxic; conditions: 24 h
HepG2 [19] = experiment: relative viability EC50 (midpoint between 100% and the lowest measured viability); higher = less toxic; conditions: 72 h
U2OS [20] = experiment: as above; conditions: 72 h

COCC(=O)O[C@]1(CCN(C)CCCc2nc3ccccc3[nH]2)CCc2cc(F)ccc2[C@@H]1C(C)C [mibefradil]
Conditions	SARS-CoV-2 infection rate [%]	cell count [%]	cell viability [%]	morphology score	phospholipidosis EC50 [µM]
A549-ACE2 [8], 24 h	–	–	–	–	2.94
A549-ACE2 [8], 48 h	–	–	–	–	4.35
A549-ACE2 [8], 72 h	–	–	–	–	7.83
Caco-2 [3], 1 nM	–	–	101	–	–
Caco-2 [3], 10 nM	–	–	90.3	–	–
Caco-2 [3], 100 nM	–	–	101	–	–
Caco-2 [3], 1000 nM	–	–	87.4	–	–
Caco-2 [3], 10000 nM	–	–	45.8	–	–
Calu-3 [4], 1 nM	–	–	99.8	–	–
Calu-3 [4], 10 nM	–	–	105	–	–
Calu-3 [4], 100 nM	–	–	109	–	–
Calu-3 [4], 1000 nM	–	–	101	–	–
Calu-3 [4], 10000 nM	–	–	7.2	–	–
HepG2 [2], 1 nM	–	–	99	–	–
HepG2 [2], 10 nM	–	–	97.7	–	–
HepG2 [2], 100 nM	–	–	88.2	–	–
HepG2 [2], 1000 nM	–	–	98.3	–	–
HepG2 [2], 10000 nM	–	–	50.3	–	–
U2OS [5], 1 nM	–	–	103	–	–
U2OS [5], 10 nM	–	–	97.9	–	–
U2OS [5], 100 nM	–	–	98.7	–	–
U2OS [5], 1000 nM	–	–	90.9	–	–
U2OS [5], 10000 nM	–	–	65.6	–	–
Vero E6 [1], 1 nM	–	–	94.7	–	–
Vero E6 [1], 10 nM	–	–	98.8	–	–
Vero E6 [1], 100 nM	–	–	92.9	–	–
Vero E6 [1], 1000 nM	–	–	91.4	–	–
Vero E6 [1], 10000 nM	–	–	89	–	–
[6], 0.3 µM	102	–	–	–	–
[6], 3 µM	32	–	–	–	–
[6], 10 µM	9	–	–	–	–
[6], 30 µM	84	–	–	–	–
[7], 0.3 µM	–	–	–	-0.1	–
[7], 3 µM	–	–	–	0.85	–
[7], 10 µM	–	–	–	0.71	–
[7], 30 µM	–	–	–	-0.08	–
[18], 0.3 µM	–	100	–	–	–
[18], 3 µM	–	125	–	–	–
[18], 10 µM	–	119	–	–	–
[18], 30 µM	–	12	–	–	–

Conditions	drug sensitivity score	relative viability EC50 [µM]
Caco-2 [11]	4.9	–
Caco-2 [15]	–	1.61
Calu-3 [12]	5.1	–
Calu-3 [16]	–	3.24
HepG2 [10]	2.8	–
U2OS [13]	3	–
Vero E6 [9]	0	–
Vero E6 [14]	–	> 10

drug-induced phospholipidosis [%], A549-ACE2 [17]
Conditions	0.3 µM	0.833333 µM	3.33333 µM	6.66667 µM	10 µM	30 µM
24 h	-2.56	5.28	65.2	87.9	115	45.3
48 h	0.45	7.22	63.5	96.7	118	–
72 h	4.04	7.42	45.4	91.8	122	–

Fc1ccc(-n2cc(CCCCN3CCC4(CC3)OCc3ccccc34)c3ccccc32)cc1 [siramesine]
Conditions	SARS-CoV-2 infection rate [%]	cell count [%]	cell viability [%]	morphology score	phospholipidosis EC50 [µM]
A549-ACE2 [8], 72 h	–	–	–	–	4.1
Caco-2 [3], 1 nM	–	–	97.3	–	–
Caco-2 [3], 10 nM	–	–	104	–	–
Caco-2 [3], 100 nM	–	–	85.1	–	–
Caco-2 [3], 1000 nM	–	–	101	–	–
Caco-2 [3], 10000 nM	–	–	37.5	–	–
Calu-3 [4], 1 nM	–	–	88.8	–	–
Calu-3 [4], 10 nM	–	–	94.3	–	–
Calu-3 [4], 100 nM	–	–	88.2	–	–
Calu-3 [4], 1000 nM	–	–	104	–	–
Calu-3 [4], 10000 nM	–	–	17.8	–	–
HepG2 [2], 1 nM	–	–	97.7	–	–
HepG2 [2], 10 nM	–	–	100	–	–
HepG2 [2], 100 nM	–	–	93.5	–	–
HepG2 [2], 1000 nM	–	–	98.6	–	–
HepG2 [2], 10000 nM	–	–	24	–	–
U2OS [5], 1 nM	–	–	100	–	–
U2OS [5], 10 nM	–	–	97.7	–	–
U2OS [5], 100 nM	–	–	95.6	–	–
U2OS [5], 1000 nM	–	–	103	–	–
U2OS [5], 10000 nM	–	–	53.2	–	–
Vero E6 [1], 1 nM	–	–	98.9	–	–
Vero E6 [1], 10 nM	–	–	93.5	–	–
Vero E6 [1], 100 nM	–	–	99.2	–	–
Vero E6 [1], 1000 nM	–	–	89	–	–
Vero E6 [1], 10000 nM	–	–	73.5	–	–
[6], 0.1 µM	93	–	–	–	–
[6], 0.3 µM	50	–	–	–	–
[6], 1 µM	60	–	–	–	–
[6], 3 µM	26	–	–	–	–
[7], 0.1 µM	–	–	–	0.38	–
[7], 0.3 µM	–	–	–	0.75	–
[7], 1 µM	–	–	–	0.69	–
[7], 3 µM	–	–	–	0.84	–
[18], 0.1 µM	–	111	–	–	–
[18], 0.3 µM	–	114	–	–	–
[18], 1 µM	–	117	–	–	–
[18], 3 µM	–	111	–	–	–

Conditions	drug sensitivity score	relative viability EC50 [µM]
Caco-2 [11]	3.3	–
Caco-2 [15]	–	3.26
Calu-3 [12]	4.2	–
Calu-3 [16]	–	3.44
HepG2 [10]	4.4	–
HepG2 [19]	–	3.03
U2OS [13]	2.2	–
Vero E6 [9]	2.2	–

drug-induced phospholipidosis [%], A549-ACE2 [17]
Conditions	0.3 µM	0.833333 µM	3.33333 µM	6.66667 µM	10 µM
24 h	2.74	5.08	32.4	33.5	24.5
48 h	4.1	0.61	22.6	47.9	–
72 h	0.56	0.623	23.8	61.4	–

CC(=O)O[C@@H]1C[C@H]2C(C)(C)C(=O)C=C[C@]2(C)[C@H]2CC[C@@]3(C)[C@H](c4ccoc4)OC(=O)[C@H]4O[C@]43[C@@]21C [gedunin]
Conditions	SARS-CoV-2 infection rate, [6] [%]	cell count, [18] [%]	cell viability, Caco-2 [3] [%]	cell viability, Calu-3 [4] [%]	cell viability, HepG2 [2] [%]	cell viability, U2OS [5] [%]	cell viability, Vero E6 [1] [%]	morphology score, [7]
1 nM	–	–	97.5	102	105	99.5	101	–
10 nM	–	–	94.6	103	93.8	100	102	–
100 nM	–	–	102	115	103	95.7	102	–
0.3 µM	107	101	–	–	–	–	–	0.03
1000 nM	–	–	103	97.2	94.9	100	94.3	–
3 µM	95	96	–	–	–	–	–	0.18
10000 nM	–	–	86.8	102	80.6	95.4	86.6	–
10 µM	98	108	–	–	–	–	–	0.06
30 µM	85	103	–	–	–	–	–	0.52

Conditions	drug sensitivity score	relative viability EC50 [µM]
Caco-2 [11]	0.1	–
Caco-2 [15]	–	> 10
Calu-3 [12]	0	–
Calu-3 [16]	–	> 10
HepG2 [10]	1.2	–
HepG2 [19]	–	> 10
U2OS [13]	0	–
U2OS [20]	–	> 10
Vero E6 [9]	0.5	–
Vero E6 [14]	–	> 10

drug-induced phospholipidosis [%], A549-ACE2 [17]
Conditions	0.3 µM	0.833333 µM	3.33333 µM	6.66667 µM	10 µM	30 µM
24 h	2.13	1.52	8.1	16.6	23.3	40.1
48 h	7.32	5.06	10.1	18	24.2	37.8
72 h	7.41	2.35	7.47	17	21.7	40.6

CCOc1cn(-c2ccc(F)cc2C)nc1C(=O)Nc1ccc(Oc2ccnc3cc(OC)c(OC)cc23)c(F)c1 [LDC1267]
Conditions	SARS-CoV-2 infection rate [%]	cell count [%]	cell viability [%]	morphology score	phospholipidosis EC50 [µM]
A549-ACE2 [8], 24 h	–	–	–	–	3.79
A549-ACE2 [8], 72 h	–	–	–	–	3.79
Caco-2 [3], 1 nM	–	–	95.3	–	–
Caco-2 [3], 10 nM	–	–	96.1	–	–
Caco-2 [3], 100 nM	–	–	94.7	–	–
Caco-2 [3], 1000 nM	–	–	91.9	–	–
Caco-2 [3], 10000 nM	–	–	68.7	–	–
Calu-3 [4], 1 nM	–	–	100	–	–
Calu-3 [4], 10 nM	–	–	99	–	–
Calu-3 [4], 100 nM	–	–	95.3	–	–
Calu-3 [4], 1000 nM	–	–	87.9	–	–
Calu-3 [4], 10000 nM	–	–	73	–	–
HepG2 [2], 1 nM	–	–	106	–	–
HepG2 [2], 10 nM	–	–	94.7	–	–
HepG2 [2], 100 nM	–	–	99.9	–	–
HepG2 [2], 1000 nM	–	–	88.5	–	–
HepG2 [2], 10000 nM	–	–	76.2	–	–
U2OS [5], 1 nM	–	–	97.5	–	–
U2OS [5], 10 nM	–	–	101	–	–
U2OS [5], 100 nM	–	–	98.4	–	–
U2OS [5], 1000 nM	–	–	102	–	–
U2OS [5], 10000 nM	–	–	83.1	–	–
Vero E6 [1], 1 nM	–	–	105	–	–
Vero E6 [1], 10 nM	–	–	103	–	–
Vero E6 [1], 100 nM	–	–	103	–	–
Vero E6 [1], 1000 nM	–	–	96.9	–	–
Vero E6 [1], 10000 nM	–	–	100	–	–
[6], 0.3 µM	91	–	–	–	–
[6], 3 µM	107	–	–	–	–
[6], 10 µM	90	–	–	–	–
[6], 30 µM	93	–	–	–	–
[7], 0.3 µM	–	–	–	0.33	–
[7], 3 µM	–	–	–	0.25	–
[7], 10 µM	–	–	–	0.23	–
[7], 30 µM	–	–	–	0.15	–
[18], 0.3 µM	–	102	–	–	–
[18], 3 µM	–	100	–	–	–
[18], 10 µM	–	91	–	–	–
[18], 30 µM	–	84	–	–	–

Conditions	drug sensitivity score	relative viability EC50 [µM]
Caco-2 [11]	2.4	–
Calu-3 [12]	2	–
HepG2 [10]	2.2	–
HepG2 [19]	–	> 10
U2OS [13]	0.3	–
U2OS [20]	–	> 10
Vero E6 [9]	0	–
Vero E6 [14]	–	> 10

drug-induced phospholipidosis [%], A549-ACE2 [17]
Conditions	0.3 µM	0.833333 µM	3.33333 µM	6.66667 µM	10 µM	30 µM
24 h	2.46	2.17	18.8	41.1	67	35
48 h	6.67	3.21	28.6	39.5	–	48.4
72 h	7.89	6.46	31.2	48.2	–	61.4
